{
  "source": "paper PMC2694617",
  "about": "(Journal of medicinal chemistry, 2009)",
  "origin": "cited, not measured here",
  "key": {"[1]": {"conditions": "ref [6],[11],[18],[19]"}, "human NTS1 [2]": {"molecular_target": "T1, human NTS1 (Homo sapiens, UniProt P30989)", "T1 sequence (P30989 whole entry)": "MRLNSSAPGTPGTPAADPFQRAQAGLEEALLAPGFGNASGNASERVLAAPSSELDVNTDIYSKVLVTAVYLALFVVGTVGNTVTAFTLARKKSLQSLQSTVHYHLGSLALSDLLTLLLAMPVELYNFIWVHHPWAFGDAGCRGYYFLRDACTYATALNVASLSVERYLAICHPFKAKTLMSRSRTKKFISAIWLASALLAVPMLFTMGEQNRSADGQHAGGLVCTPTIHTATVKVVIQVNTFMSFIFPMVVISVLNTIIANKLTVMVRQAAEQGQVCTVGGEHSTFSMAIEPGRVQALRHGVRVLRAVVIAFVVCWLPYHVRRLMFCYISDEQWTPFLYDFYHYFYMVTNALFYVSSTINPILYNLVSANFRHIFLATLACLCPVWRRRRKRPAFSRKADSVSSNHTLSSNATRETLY"}, "[3]": {"system": "rat model of inflammatory pain", "conditions": "in vivo"}, "human NTS1 [4]": {"molecular_target": "T1, human NTS1", "remark": "listed apart in the source"}},
  "note": "Like-named read-outs stand apart in the source and are kept apart here.",
  "data": [
    {"substance": "cyclo(KKPYILKKPYIL) [JMV2012] [listing 1 of 2 here]", "values": [
      {"measurement": "analgesic activity", "setting": "previously described, ref [12]", "result": "analgesic"}
    ]},
    {"substance": "(N-methyl-Arg)-Lys-Pro-(L-neo-Trp)-(tert-Leu)-Leu [NT69L]", "values": [
      {"measurement": "analgesic activity", "setting": "ref [6],[11],[18],[19]", "result": "potent analgesic"},
      {"measurement": "BBB penetration", "setting": "[1]", "result": "penetrates the BBB"}
    ]},
    {"substance": "cyclo(KKPYILKKPYIL) [JMV2012] [listing 2 of 2 here]", "values": [
      {"measurement": "Kd", "setting": "human NTS1 [2]; ref [12]", "result": 150, "unit": "nM"}
    ]},
    {"substance": "(N-methyl-Arg)-Lys-Pro-(L-neo-Trp)-(tert-Leu)-Leu (RKPWLL) [NT69L]", "values": [
      {"measurement": "Kd", "setting": "human NTS1 [2]; ref [11]", "result": 1.55, "unit": "nM"}
    ]},
    {"substance": "contulakin-G", "values": [
      {"measurement": "potency", "setting": "[3]", "result": "picomolar potency"}
    ]},
    {"substance": "NT: endogenous neuropeptide; full-length, unmodified NT", "values": [
      {"measurement": "analgesic activity", "setting": "mediated spinally and/or supraspinally by NT receptors, ref [5],[6]", "result": "potent analgesic activity"}
    ]},
    {"substance": "neurotensin (from UniProt P30990)", "values": [
      {"measurement": "Ki", "setting": "human NTS1 [4]", "result": 0.5, "unit": "nM"}
    ]}
  ]
}
